Each block holds one compound with its values, some of them ahead of it.
Test system: 996289-038-R-J1-PDC complex spheroid viability
Experiment: Anticancer human tumor 996289-038-R-J1-PDC patient-derived colon adenocarcinoma cell line growth inhibition [CLK]
Details: for IC50: curve of first compound; for viability, T/C: stronger effect = lower value
How it was run: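 Multi-cell-type spheroids combined patient-derived tumor cells with HUVEC endothelial cells and human mesenchymal stem cells. Paired agents were dosed in half-log steps down from about clinical Cmax, or from 10 microM where Cmax was unknown.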

[1] = second compound 0.0316 µM, first compound 0.00949 µM
[2] = second compound 0.0316 µM, first compound 0.03 µM
[3] = second compound 0.0316 µM, first compound 0.0949 µM
[4] = second compound 0.0316 µM, first compound 0.3 µM
[5] = second compound 0.1 µM, first compound 0.00949 µM
[6] = second compound 0.1 µM, first compound 0.03 µM
[7] = second compound 0.1 µM, first compound 0.0949 µM
[8] = second compound 0.1 µM, first compound 0.3 µM
[9] = second compound 0.316 µM, first compound 0.00949 µM
[10] = second compound 0.316 µM, first compound 0.03 µM
[11] = second compound 0.316 µM, first compound 0.0949 µM
[12] = second compound 0.316 µM, first compound 0.3 µM
[13] = second compound 1 µM, first compound 0.00949 µM
[14] = second compound 1 µM, first compound 0.03 µM
[15] = second compound 1 µM, first compound 0.0949 µM
[16] = second compound 1 µM, first compound 0.3 µM
[17] = second compound 3.16 µM, first compound 0.00949 µM
[18] = second compound 3.16 µM, first compound 0.03 µM
[19] = second compound 3.16 µM, first compound 0.0949 µM
[20] = second compound 3.16 µM, first compound 0.3 µM
[21] = second compound 10 µM, first compound 0.00949 µM
[22] = second compound 10 µM, first compound 0.03 µM
[23] = second compound 10 µM, first compound 0.0949 µM
[24] = second compound 10 µM, first compound 0.3 µM
[25] = second compound 0.0316 µM, first compound 0.0316 µM
[26] = second compound 0.0316 µM, first compound 0.1 µM
[27] = second compound 0.0316 µM, first compound 0.316 µM
[28] = second compound 0.0316 µM, first compound 1 µM
[29] = second compound 0.0316 µM, first compound 3.16 µM
[30] = second compound 0.0316 µM, first compound 10 µM
[31] = second compound 0.1 µM, first compound 0.0316 µM
[32] = second compound 0.1 µM, first compound 0.1 µM
[33] = second compound 0.1 µM, first compound 0.316 µM
[34] = second compound 0.1 µM, first compound 1 µM
[35] = second compound 0.1 µM, first compound 3.16 µM
[36] = second compound 0.1 µM, first compound 10 µM
[37] = second compound 0.316 µM, first compound 0.0316 µM
[38] = second compound 0.316 µM, first compound 0.1 µM
[39] = second compound 0.316 µM, first compound 0.316 µM
[40] = second compound 0.316 µM, first compound 1 µM
[41] = second compound 0.316 µM, first compound 3.16 µM
[42] = second compound 0.316 µM, first compound 10 µM
[43] = second compound 1 µM, first compound 0.0316 µM
[44] = second compound 1 µM, first compound 0.1 µM
[45] = second compound 1 µM, first compound 0.316 µM
[46] = second compound 1 µM, first compound 1 µM
[47] = second compound 1 µM, first compound 3.16 µM
[48] = second compound 1 µM, first compound 10 µM
[49] = second compound 3.16 µM, first compound 0.0316 µM
[50] = second compound 3.16 µM, first compound 0.1 µM
[51] = second compound 3.16 µM, first compound 0.316 µM
[52] = second compound 3.16 µM, first compound 1 µM
[53] = second compound 3.16 µM, first compound 3.16 µM
[54] = second compound 3.16 µM, first compound 10 µM
[55] = second compound 10 µM, first compound 0.0316 µM
[56] = second compound 10 µM, first compound 0.1 µM
[57] = second compound 10 µM, first compound 0.316 µM
[58] = second compound 10 µM, first compound 1 µM
[59] = second compound 10 µM, first compound 3.16 µM
[60] = second compound 10 µM, first compound 10 µM
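Also: spheroids exposed to the agents for 7 days before readout.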

IC50 (second compound 0.0316 µM): > 0.3 µM
IC50 (second compound 0.1 µM): > 0.3 µM
IC50 (second compound 0.316 µM): > 0.3 µM
IC50 (second compound 1 µM): 0.137 µM
IC50 (second compound 3.16 µM): 0.0918 µM
IC50 (second compound 10 µM): 0.0569 µM
SMILES: C=CC(=O)Nc1cc(Nc2nccc(-c3cn(C)c4ccccc34)n2)c(OC)cc1N(C)CCN(C)C + CNC(=O)c1ccc(Nc2nc(OC3CCCC3)c3c(-c4ccc5nc(C)oc5c4)c[nH]c3n2)c(OC)c1
viability, T/C (second compound 0.0316 µM, first compound 0.000949 µM): 118%
viability, T/C (second compound 0.0316 µM, first compound 0.003 µM): 123%
viability, T/C [1]: 112%
viability, T/C [2]: 117%
viability, T/C [3]: 113%
viability, T/C [4]: 85.8%
viability, T/C (second compound 0.1 µM, first compound 0.000949 µM): 109%
viability, T/C (second compound 0.1 µM, first compound 0.003 µM): 124%
viability, T/C [5]: 106%
viability, T/C [6]: 109%
viability, T/C [7]: 110%
viability, T/C [8]: 77.4%
viability, T/C (second compound 0.316 µM, first compound 0.000949 µM): 74%
viability, T/C (second compound 0.316 µM, first compound 0.003 µM): 74.3%
viability, T/C [9]: 72.7%
viability, T/C [10]: 69.4%
viability, T/C [11]: 68.8%
viability, T/C [12]: 52.5%
viability, T/C (second compound 1 µM, first compound 0.000949 µM): 69.7%
viability, T/C (second compound 1 µM, first compound 0.003 µM): 67.5%
viability, T/C [13]: 62%
viability, T/C [14]: 61.6%
viability, T/C [15]: 53.2%
viability, T/C [16]: 43.1%
viability, T/C (second compound 3.16 µM, first compound 0.000949 µM): 64.2%
viability, T/C (second compound 3.16 µM, first compound 0.003 µM): 60.8%
viability, T/C [17]: 56.5%
viability, T/C [18]: 53%
viability, T/C [19]: 53.1%
viability, T/C [20]: 43.8%
viability, T/C (second compound 10 µM, first compound 0.000949 µM): 60.9%
viability, T/C (second compound 10 µM, first compound 0.003 µM): 55.9%
viability, T/C [21]: 55%
viability, T/C [22]: 54.7%
viability, T/C [23]: 47.4%
viability, T/C [24]: 38.2%

IC50 (second compound 0.0316 µM): 9.12 µM
IC50 (second compound 0.1 µM): 8.96 µM
IC50 (second compound 0.316 µM): 7.56 µM
IC50 (second compound 1 µM): 6.26 µM
IC50 (second compound 3.16 µM): 5.76 µM
IC50 (second compound 10 µM): 5.18 µM
SMILES: CC1(C)CCC(CN2CCN(c3ccc(C(=O)NS(=O)(=O)c4ccc(NCC5CCOCC5)c([N+](=O)[O-])c4)c(Oc4cnc5[nH]ccc5c4)c3)CC2)=C(c2ccc(Cl)cc2)C1 + CNC(=O)c1ccc(Nc2nc(OC3CCCC3)c3c(-c4ccc5nc(C)oc5c4)c[nH]c3n2)c(OC)c1
viability, T/C [25]: 128%
viability, T/C [26]: 110%
viability, T/C [27]: 115%
viability, T/C [28]: 127%
viability, T/C [29]: 139%
viability, T/C [30]: 43.5%
viability, T/C [31]: 125%
viability, T/C [32]: 123%
viability, T/C [33]: 138%
viability, T/C [34]: 119%
viability, T/C [35]: 134%
viability, T/C [36]: 41.9%
viability, T/C [37]: 80.2%
viability, T/C [38]: 82.7%
viability, T/C [39]: 88.7%
viability, T/C [40]: 90.7%
viability, T/C [41]: 103%
viability, T/C [42]: 37.5%
viability, T/C [43]: 67.2%
viability, T/C [44]: 67.7%
viability, T/C [45]: 74%
viability, T/C [46]: 74.7%
viability, T/C [47]: 100%
viability, T/C [48]: 31.6%
viability, T/C [49]: 65%
viability, T/C [50]: 61.7%
viability, T/C [51]: 67.1%
viability, T/C [52]: 70.7%
viability, T/C [53]: 84.1%
viability, T/C [54]: 32%
viability, T/C [55]: 61.5%
viability, T/C [56]: 59.1%
viability, T/C [57]: 61.3%
viability, T/C [58]: 72.7%
viability, T/C [59]: 81.3%
viability, T/C [60]: 27%

IC50 (second compound 0.0316 µM): 0.101 µM
IC50 (second compound 0.1 µM): 0.077 µM
IC50 (second compound 0.316 µM): 0.0405 µM
IC50 (second compound 1 µM): 0.013 µM
IC50 (second compound 3.16 µM): < 0.00949 µM
IC50 (second compound 10 µM): < 0.00949 µM
SMILES: NC(=O)C(=Cn1cnc(-c2cc(C(F)(F)F)cc(C(F)(F)F)c2)n1)c1cncnc1 + CNC(=O)c1ccc(Nc2nc(OC3CCCC3)c3c(-c4ccc5nc(C)oc5c4)c[nH]c3n2)c(OC)c1
viability, T/C [1]: 98.9%
viability, T/C [2]: 79.4%
viability, T/C [3]: 50.9%
viability, T/C [4]: 31.2%
viability, T/C (second compound 0.0316 µM, first compound 0.949 µM): 20%
viability, T/C (second compound 0.0316 µM, first compound 3 µM): 19.5%
viability, T/C [5]: 93.8%
viability, T/C [6]: 71.5%
viability, T/C [7]: 45.8%
viability, T/C [8]: 27.6%
viability, T/C (second compound 0.1 µM, first compound 0.949 µM): 17.7%
viability, T/C (second compound 0.1 µM, first compound 3 µM): 19%
viability, T/C [9]: 68.9%
viability, T/C [10]: 55.2%
viability, T/C [11]: 33.8%
viability, T/C [12]: 15%
viability, T/C (second compound 0.316 µM, first compound 0.949 µM): 13.4%
viability, T/C (second compound 0.316 µM, first compound 3 µM): 13.8%
viability, T/C [13]: 53.7%
viability, T/C [14]: 40.1%
viability, T/C [15]: 19.5%
viability, T/C [16]: 8.6%
viability, T/C (second compound 1 µM, first compound 0.949 µM): 8.98%
viability, T/C (second compound 1 µM, first compound 3 µM): 8.12%
viability, T/C [17]: 47.8%
viability, T/C [18]: 35.6%
viability, T/C [19]: 15.5%
viability, T/C [20]: 7.76%
viability, T/C (second compound 3.16 µM, first compound 0.949 µM): 6.08%
viability, T/C (second compound 3.16 µM, first compound 3 µM): 5.36%
viability, T/C [21]: 44.5%
viability, T/C [22]: 33.8%
viability, T/C [23]: 12.8%
viability, T/C [24]: 8.08%
viability, T/C (second compound 10 µM, first compound 0.949 µM): 5.49%
viability, T/C (second compound 10 µM, first compound 3 µM): 4.93%

IC50 (second compound 0.0316 µM): 7.09 µM
IC50 (second compound 0.1 µM): 6.91 µM
IC50 (second compound 0.316 µM): 4.11 µM
IC50 (second compound 1 µM): 1.7 µM
IC50 (second compound 3.16 µM): 1.88 µM
IC50 (second compound 10 µM): 1.84 µM
SMILES: Nc1ccccc1NC(=O)c1ccc(CNC(=O)OCc2cccnc2)cc1 + CNC(=O)c1ccc(Nc2nc(OC3CCCC3)c3c(-c4ccc5nc(C)oc5c4)c[nH]c3n2)c(OC)c1
viability, T/C [25]: 118%
viability, T/C [26]: 103%
viability, T/C [27]: 113%
viability, T/C [28]: 91.8%
viability, T/C [29]: 70.7%
viability, T/C [30]: 41.3%
viability, T/C [31]: 118%
viability, T/C [32]: 110%
viability, T/C [33]: 120%
viability, T/C [34]: 97.9%
viability, T/C [35]: 71%
viability, T/C [36]: 40.2%
viability, T/C [37]: 85.5%
viability, T/C [38]: 82.9%
viability, T/C [39]: 74.3%
viability, T/C [40]: 75.5%
viability, T/C [41]: 54%
viability, T/C [42]: 31.3%
viability, T/C [43]: 70.6%
viability, T/C [44]: 70.7%
viability, T/C [45]: 66.7%
viability, T/C [46]: 59.9%
viability, T/C [47]: 38.8%
viability, T/C [48]: 12.5%
viability, T/C [49]: 63.8%
viability, T/C [50]: 66.1%
viability, T/C [51]: 63.8%
viability, T/C [52]: 62.2%
viability, T/C [53]: 40.1%
viability, T/C [54]: 8.12%
viability, T/C [55]: 60.8%
viability, T/C [56]: 63.3%
viability, T/C [57]: 57.2%
viability, T/C [58]: 62.6%
viability, T/C [59]: 40.3%
viability, T/C [60]: 7.43%
